Earlier results as cited in article PMC7838024 (Acta Pharmaceutica Sinica. B, 2020).

Details: rats, doses from 0.5 to 1.5 mg/kg

Compound: CO[C@H]1C(=O)[C@]2(C)[C@@H](OC)C[C@H]3OC[C@@]3(OC(C)=O)[C@H]2[C@H](OC(=O)c2ccccc2)[C@]2(O)C[C@H](OC(=O)[C@H](O)[C@@H](NC(=O)OC(C)(C)C)c3ccccc3)C(C)=C1C2(C)C [CTX, cabazitaxel]
- central nervous system toxicity: dose-dependent central nervous system toxicity
